According to ChEMBL document CHEMBL1649532, “Trypanocidal activity of 8-methyl-5'-{[(Z)-4-aminobut-2-enyl]-(methylamino)}adenosine (Genz-644131), an adenosylmethionine decarboxylase inhibitor” (Antimicrob Agents Chemother, 2009):
In brackets after ≈: the same amount, converted by molar mass. Activity calls are given as the source filed them. The calls are words filed in the database; no cut-off is given here.

Tests used:
[1] = system: Trypanosoma brucei rhodesiense; test: Trypanocidal activity against Trypanosoma brucei rhodesiense KETRI2002 infected in mouse assessed as protection against trypanosomal infection at 2 mg/kg, ip QD administered 24 hrs postinfection; format: functional, organism-based; set-up: dose 2 mg/kg
[2] = system: Trypanosoma brucei rhodesiense; test: Trypanocidal activity against Trypanosoma brucei rhodesiense KETRI1992 infected in mouse assessed as protection against trypanosomal infection at 2 mg/kg, ip QD administered 24 hrs postinfection; format: functional, organism-based; set-up: dose 2 mg/kg
[3] = system: Trypanosoma brucei rhodesiense; test: Trypanocidal activity against Trypanosoma brucei rhodesiense KETRI1992 infected in mouse assessed as average survival time at 2 mg/kg, ip QD administered 24 hrs postinfection; format: functional; details: route intraperitoneal
[4] = system: Trypanosoma brucei brucei; test: Trypanocidal activity against Trypanosoma brucei brucei EATRO infected in mouse assessed as mean survival time at 2 mg/kg, ip QD for 4 days; format: functional; details: route intraperitoneal
[5] = system: Trypanosoma brucei rhodesiense; test: Trypanocidal activity against Trypanosoma brucei rhodesiense KETRI243 infected in mouse assessed as protection against trypanosomal infection at 2 mg/kg, ip QD administered 24 hrs postinfection; format: functional, organism-based; set-up: dose 2 mg/kg
[6] = system: Trypanosoma brucei rhodesiense; test: Trypanocidal activity against Trypanosoma brucei rhodesiense KETRI243 infected in mouse assessed as average survival time at 2 mg/kg, ip QD administered 24 hrs postinfection; format: functional; details: route intraperitoneal
[7] = system: Trypanosoma brucei brucei; test: Trypanocidal activity against Trypanosoma brucei brucei EATRO after 48 hrs; format: functional, organism-based
[8] = system: Trypanosoma brucei rhodesiense; test: Ratio of Kinact to Kiapp for Trypanosoma brucei rhodesiense AdoMetDC
[9] = system: Trypanosoma brucei rhodesiense; test: Trypanocidal activity against Trypanosoma brucei rhodesiense KETRI243 after 48 hrs; format: functional, organism-based; details: KETRI243, 48 h
[10] = system: Trypanosoma brucei rhodesiense; test: Trypanocidal activity against Trypanosoma brucei rhodesiense KETRI2538 after 48 hrs; format: functional, organism-based; details: KETRI2538, 48 h

Row | Activity [8] [min⁻¹ M⁻¹] | Compound | Activity [1] | Activity [2] | MST [3] [days] | MST [4] [days] | Activity [5] | MST [6] [days] | IC50 [7] [µg/mL] | IC50 [9] [µg/mL] | IC50 [10] [µg/mL]
1 |  | N=C(N)c1ccc(OCCCCCOc2ccc(C(=N)N)cc2)cc1 [PENTAMIDINE] | Active | inactive | 18 | >35 | inactive | 11.6 |  |  | 
2 | 1.5 | CN(C/C=C\CN)C[C@H]1O[C@@H](n2cnc3c(N)ncnc32)[C@H](O)[C@@H]1O |  |  |  |  |  |  | 0.05 (≈ 0.143 µM) | 0.02 (≈ 0.0572 µM) | 0.021 (≈ 0.0601 µM)
